Measured values reported in US12448388B2, “PRMT5 inhibitors and uses thereof” (Gilead Sciences, Inc., priority 2023, dated 2025).
Read-outs that look alike come from different tables or passages of the source.

System: HCT116 MTAP-deleted cell lines
Assay: Cell viability assay (CellTiter-Glo, 7 days), HCT116 MTAP-deleted
Format: cell-based
Details: Homo sapiens, HCT-116, HCT116 MTAP-deleted, class symbols, read-out: CC50
Method in brief: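 First, compounds are serially diluted in DMSO and dispensed into plates, which are frozen until seeding. Next, cells are added and incubated 7 days at 37 °C, 5% CO2, 90% humidity. Finally, CellTiter-Glo reagent is added and luminescence is measured to derive CC50.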

SMILES: CN(C(=O)c1cc2c(cc1F)nc(N)c1cncn12)[C@@H]1COc2cc(C#CC(C)(C)O)ccc21 [Ff-442, 4-amino-7-fluoro-N-[(3S)-6-(3-hydroxy-3-methyl-but-1-ynyl)-2,3-dihydrobenzofuran-3-yl]-N-methyl-imidazo[1,5-a]quinoxaline-8-carboxamide]
- CC50 (cell viability assay): < 100 nM

SMILES: Nc1nc2cnc(C(=O)N3CCC[C@@H]4Oc5c(ccc(OC(F)(F)F)c5F)[C@@H]43)cc2n2cncc12 [Ff-336, (4-aminoimidazo[1,5-a]pyrido[3,4-e]pyrazin-8-yl)((4aS,9bS)-6-fluoro-7-(trifluoromethoxy)-3,4,4a,9b-tetrahydrobenzofuro[3,2-b]pyridin-1(2H)-yl)methanone]
- CC50 (cell viability): < 100 nM

SMILES: Nc1nc2ccc(C(=O)N3CCO[C@@H]4Cc5cc(C(F)(F)F)ccc5[C@@H]43)cc2n2cncc12 (racemic) [Ff-33, Racemic (4-aminoimidazo[1,5-a]quinoxalin-8-yl)((4aS,9aR)-7-(trifluoromethyl)-2,3,9,9a-tetrahydroindeno[2,1-b][1,4]oxazin-4(4aH)-yl)methanone]
- CC50 (cell viability): 100 to 1000 nM

SMILES: CN(Cc1ccc(OCC(F)(F)F)cc1)C(=O)c1cc2c(cc1F)nc(N)c1cncn12 [Ff-433, 4-amino-7-fluoro-N-methyl-N-[[4-(2,2,2-trifluoroethoxy)phenyl]methyl]imidazo[1,5-a]quinoxaline-8-carboxamide]
- CC50 (cell viability assay): 100 to 1000 nM

SMILES: Nc1nc2ccc(C(=O)N3CCC[C@@H]4Cc5cc(C(F)(F)F)ccc5[C@@H]43)cc2n2cncc12 (racemic) [Ff-249, Rac-(4-aminoimidazo[1,5-a]quinoxalin-8-yl)((4aR,9bR)-7-(trifluoromethyl)-2,3,4,4a,5,9b-hexahydro-1H-indeno[1,2-b]pyridin-1-yl)methanone]
- CC50 (cell viability): 100 to 1000 nM

SMILES: Nc1nc2cc(F)c(C(=O)N3CCO[C@@H]4Cc5cc(-c6cnn(C(F)F)c6)ccc5[C@@H]43)cc2n2cncc12 [Ff-235, (4-amino-7-fluoroimidazo[1,5-a]quinoxalin-8-yl)((4aS,9aR)-7-(1-(difluoromethyl)-1H-pyrazol-4-yl)-2,3,9,9a-tetrahydroindeno[2,1-b][1,4]oxazin-4(4aH)-yl)methanone]
- CC50 (cell viability): < 100 nM

SMILES: Nc1nc2ccc(C(=O)N3CCC[C@@H]4Oc5cc(C(F)(F)F)ccc5[C@@H]43)cc2n2cnc(F)c12 [Ff-588, (4-amino-3-fluoroimidazo[1,5-a]quinoxalin-8-yl)((4aS,9bS)-7-(trifluoromethyl)-3,4,4a,9b-tetrahydrobenzofuro[3,2-b]pyridin-1(2H)-yl)methanone]
- CC50 (cell viability assay): < 100 nM

SMILES: C[C@@H]1CN(C(=O)c2cc3c(cn2)nc(N)c2cncn23)[C@H]2c3ccc(OC(F)(F)F)c(F)c3C[C@H]2O1 (single isomer, unassigned) [Ff-193]
- CC50 (cell viability): 100 to 1000 nM

SMILES: Nc1nc2cc(F)c(C(=O)N(Cc3ccc(F)cc3Cl)C3CCC3)cc2n2cncc12 [Ff-73, 4-amino-N-(2-chloro-4-fluorobenzyl)-N-cyclobutyl-7-fluoroimidazo[1,5-a]quinoxaline-8-carboxamide]
- CC50 (cell viability): 100 to 1000 nM

SMILES: CN(Cc1ccc(-c2cnn(C(F)F)c2)cc1Cl)C(=O)c1cc2c(cc1F)nc(N)c1cncn12 [Ff-551, 4-amino-N-(2-chloro-4-(1-(difluoromethyl)-1H-pyrazol-4-yl)benzyl)-7-fluoro-N-methylimidazo[1,5-a]quinoxaline-8-carboxamide]
- CC50 (cell viability assay): 100 to 1000 nM

SMILES: Nc1nc2cc(F)c(C(=O)N3C[C@@H](F)C[C@@H]4Oc5cc(OC(F)(F)F)ccc5[C@@H]43)cc2n2cncc12 [Ff-666, (4-amino-7-fluoroimidazo[1,5-a]quinoxalin-8-yl)((3S,4aS,9bS)-3-fluoro-7-(trifluoromethoxy)-3,4,4a,9b-tetrahydrobenzofuro[3,2-b]pyridin-1(2H)-yl)methanone]
- CC50 (cell viability assay): < 100 nM

SMILES: Nc1nc2cc(F)c(C(=O)N(Cc3ccc(C(F)(F)F)cn3)C3CC(F)(F)C3)cc2n2cncc12 [Ff-415, 4-amino-N-(3,3-difluorocyclobutyl)-7-fluoro-N-[[5-(trifluoromethyl)-2-pyridyl]methyl]imidazo[1,5-a]quinoxaline-8-carboxamide]
- CC50 (cell viability assay): < 100 nM
